Where a SMILES comes first, the peptide text is derived from it. Bridges are numbered along the chain shown (N, C = ends). [ ]: non-standard residue; d: D form. Mpa = O=C(O)CCS
Assays:
F-VIII and PA = details: mammals; literature; cited from earlier work
anesthetized rats [1] = experiment: Pressor effect by intravenous injection into anesthetized rats; type: in vivo, rat; details: for Pressor Potencies (peak): rats, mean
Protocol: (§1) The vasopressin analogs of this invention were tested for antidiuretic and pressor effects by intravenous injection into anesthetized rats using techniques described in Cort, J. H., Schuck, O., Stribrna, J. Skopkova, J., Jost. K., Mulder, J. L., Kidney Internat. 8:292,1975. The increase in Factor VIII after administration were analyzed in male canine citrated plasma. The Factor VIII were estimated by both the classical clotting assay (F-VIII(C)) and by radioimmunoassay (F-VIII(RIA)), both described in Prowse, C. V., Sas, G., Gader, A. M. A., Cort, J. H., Cash, J. D., Brit. H. Haematol. 41:437, 1979. The vasopressin analogs are suitable for administration to mammals by intravenous or subcutaneous injection containing 100 μg to 1 mg peptide/ml. The intravenous or subcutaneous doses would be in the range of 0.02 to 1.0 μg/kg. The intranasal dose range would be ten times the former dose.
(§2) The vasopressin analogs were injected intravenously into normal male dogs anesthetized with sodium pentothal. Blood was withdrawn from each dog after 30, 60 and 120 minutes and analyzed for F-VIII. Rats were also rested for antidiuretic and pressor activity due to the vasopressin analogs of this invention.

Factor VIII [2] = experiment: Factor VIII radioimmunoassay (F-VIII(RIA)) on blood of dogs after intravenous injection; type: in vivo; details: dog, i.v.; for F-VIII 30' (RIA): 30 minutes; for F-VIII 60' (RIA): 60 minutes; for F-VIII 120' (RIA): 120 minutes
Protocol: (§3) K., Mulder, J. L., Kidney Internat. 8:292,1975. The increase in Factor VIII after administration were analyzed in male canine citrated plasma. The Factor VIII were estimated by both the classical clotting assay (F-VIII(C)) and by radioimmunoassay (F-VIII(RIA)), both described in […]., Cort, J. H., Cash, J. D., Brit. H. Haematol. 41:437, 1979. […] The intravenous or subcutaneous doses would be in the range of 0.02 to 1.0 μg/kg. The intranasal dose range would be ten times the former dose. […] The compounds from Examples 4-8 were tested by intravenously injecting the compounds in physiological saline into a normal dog which was anesthetized using sodium pentothal. Blood samples were withdrawn from each dog after 30, 60 and 120 minutes and tested. […] The F-VIII factor level was also determined by radioimmunoassay(RIA). The results of these tests are reported in Table I. Desmopressin (10 μg/kg) was used as a reference injection peptide.

Factor VIII [3] = experiment: Factor VIII classical clotting assay (F-VIII(C)) on blood of dogs after intravenous injection; type: in vivo; details: dog, i.v., pre-injection blood = 100%; for F-VIII 30' (c): 30 minutes; for F-VIII 60' (c): 60 minutes; for F-VIII 120' (c): 120 minutes
Protocol: as §3

F-VIII = details: cited from earlier work
anesthetized rats [4] = experiment: Antidiuretic effect by intravenous injection into anesthetized rats; type: in vivo, rat; details: for Antidiuretic Potencies (peak): rats, mean
Protocol: as §1, §2

[5] = 5 μg/kg, hemophiliac dog plasma = 0%

Row | Molecule | effect on blood levels of F-VIII and PA (F-VIII and PA) | Pressor Potencies (peak) (anesthetized rats [1]) | F-VIII 30' (RIA) (Factor VIII [2]; 10 μg/kg) | F-VIII 60' (RIA) (Factor VIII [2]; 10 μg/kg) | F-VIII 120' (RIA) (Factor VIII [2]; 10 μg/kg) | F-VIII 30' (c) (Factor VIII [3]; 10 μg/kg) | F-VIII 60' (c) (Factor VIII [3]; 10 μg/kg) | F-VIII 120' (c) (Factor VIII [3]; 10 μg/kg) | Antidiuretic Potencies (peak) (anesthetized rats [4]) | further results
1 | 1-desamino-6-monocarba-[8 -D-Arg]-vasopressin [dCDAVP] | highly potent and prolonged effects on F-VIII and PA release |  |  |  |  |  |  |  |  | 
2 | NC(=O)CC[C@@H]1NC(=O)[C@H](Cc2ccccc2)NC(=O)[C@H](Cc2ccc(O)cc2)NC(=O)CCSSC[C@@H](C(=O)N2CCC[C@H]2C(=O)N[C@H](CCCN=C(N)N)C(=O)NCC(N)=O)NC(=O)[C@H](CC(N)=O)NC1=O [Desmopressin, 1-desamino-[8-D-ARG]-vasopressin, reference compound] | highly potent and prolonged effects on F-VIII and PA release | 0.15 IU/mg | 126% | 134% | 164% | 220% | 250% | 210% | 1100 IU/mg | pressor activity (anesthetized rats [1]): less than 0.2 IU/mg; effect on low F-VIII levels in patients (F-VIII; hemophilia A and B, von Willebrand's disease, literature): increases low levels of F-VIII toward normal; antidiuretic side effect in clinical use (F-VIII; human, in vivo): undesired water retention by the patients; antidiuretic activity (anesthetized rats [4]): more than 1000 IU/mg
3 | C[C@@H](NC(=O)[C@H](CCCNC(=N)N)NC(=O)[C@@H]1CCCN1C(=O)[C@@H]1CSSCCC(=O)N[C@@H](Cc2ccc(O)cc2)C(=O)N[C@@H](Cc2ccccc2)C(=O)N[C@@H](CCC(N)=O)C(=O)N[C@@H](CC(N)=O)C(=O)N1)C(N)=O [Example 4, 1-Desamino-[9-D-Ala-NH]-arginine-vasopressin] ([Mpa]YFQNCPR[dA]-NH2; disulfide 1-6) |  | 0.15 IU/mg | 124% | 132% | 163% | 230% | 250% | 240% | 1.8 IU/mg | F-VIII 30' (RIA) (Factor VIII [2]; 5 μg/kg): 115%; F-VIII 60' (RIA) (Factor VIII [2]; 5 μg/kg): 125%; F-VIII 120' (RIA) (Factor VIII [2]; 5 μg/kg): 130%; F-VIII 30' (c) (Factor VIII [3]; [5]): 120%; F-VIII 60' (c) (Factor VIII [3]; 5 μg/kg): 160%; F-VIII 120' (c) (Factor VIII [3]; 5 μg/kg): 170%
4 | C[C@@H](NC(=O)[C@H](CCCNC(=N)N)NC(=O)[C@@H]1CCCN1C(=O)[C@@H]1CSSC[C@H](N)C(=O)N[C@@H](Cc2ccc(O)cc2)C(=O)N[C@@H](Cc2ccccc2)C(=O)N[C@@H](CCC(N)=O)C(=O)N[C@@H](CC(N)=O)C(=O)N1)C(N)=O [Example 5, ([9-D-Ala-NH2]-arginine-vasopressin] |  | 0.10 IU/mg | 115% | 110% | 115% | 225% | 128% | 115% | 1.2 IU/mg | F-VIII 30' (RIA) (Factor VIII [2]; 5 μg/kg): 110%; F-VIII 60' (RIA) (Factor VIII [2]; 5 μg/kg): 107%; F-VIII 120' (RIA) (Factor VIII [2]; 5 μg/kg): 98%; F-VIII 30' (c) (Factor VIII [3]; [5]): 115%; F-VIII 60' (c) (Factor VIII [3]; 5 μg/kg): 120%; F-VIII 120' (c) (Factor VIII [3]; 5 μg/kg): 105%
5 | C[C@H](NC(=O)[C@@H](CCCNC(=N)N)NC(=O)[C@@H]1CCCN1C(=O)[C@@H]1CSSCCC(=O)N[C@@H](Cc2ccc(O)cc2)C(=O)N[C@@H](Cc2ccccc2)C(=O)N[C@@H](CCC(N)=O)C(=O)N[C@@H](CC(N)=O)C(=O)N1)C(N)=O [Example 8, (1-desamino-[8-D-Arg, 9-Ala-NH2]arginine)-vasopressin] ([Mpa]YFQNCP[dR]A-NH2; disulfide 1-6) |  | 0.09 IU/mg | 120% | 145% | 155% | 155% | 150% | 140% | 2.23 IU/mg | 
6 | CNCC(O)c1ccc(O)c(O)c1 (stereo not drawn) [adrenaline] | can increase the blood levels of both PA and F-VIII |  |  |  |  |  |  |  |  | 
7 | CC[C@H](C)[C@@H]1NC(=O)[C@H](Cc2ccc(O)cc2)NC(=O)[C@@H](N)CSSC[C@@H](C(=O)N2CCC[C@H]2C(=O)N[C@@H](CC(C)C)C(=O)NCC(N)=O)NC(=O)[C@H](CC(N)=O)NC(=O)[C@H](CCC(N)=O)NC1=O [oxytocin] | no effect on increasing F-VIII and PA in blood |  |  |  |  |  |  |  |  | 
8 | NC(=O)CC[C@@H]1NC(=O)[C@H](Cc2ccccc2)NC(=O)[C@H](Cc2ccc(O)cc2)NC(=O)[C@@H](N)CSSC[C@@H](C(=O)N2CCC[C@H]2C(=O)N[C@@H](CCCN=C(N)N)C(=O)NCC(N)=O)NC(=O)[C@H](CC(N)=O)NC1=O [vasopressin] | can increase the blood levels of both PA and F-VIII |  |  |  |  |  |  |  |  | 
9 | (1-desamino-6-monocarba[9-D-Ala-NH2 ]-arginine)-vasopressin [Example 7] |  | 0.18 IU/mg | 125% | 165% | 180% | 240% | 255% | 266% | 1.9 IU/mg | F-VIII 30' (RIA) (Factor VIII [2]; 5 μg/kg): 140%; F-VIII 60' (RIA) (Factor VIII [2]; 5 μg/kg): 150%; F-VIII 120' (RIA) (Factor VIII [2]; 5 μg/kg): 155%; F-VIII 30' (c) (Factor VIII [3]; [5]): 145%; F-VIII 60' (c) (Factor VIII [3]; 5 μg/kg): 190%; F-VIII 120' (c) (Factor VIII [3]; 5 μg/kg): 210%
10 | angiotensin II (DRVYIHPF; Angiotensin-2; UniProt P01019 25-32, looked up) [other pressor substance] | no effect on increasing F-VIII and PA in blood |  |  |  |  |  |  |  |  | 
11 | arginine-vasotocin | far less active |  |  |  |  |  |  |  |  | 
